In patent US10669269B2, “Substituted N-(1H-indazol-4-yl)imidazo[1,2-a]pyridine-3-carboxamide compounds as type III receptor tyrosine kinase inhibitors” (ARRAY BIOPHARMA INC., priority 2010, dated 2020):
Where a name gives a salt, the structure may show the parent alone.

Assays:
[1] = biological target: T1, PDGFR beta (Homo sapiens, UniProt P09619); test: Phospho PDGFR LICOR Cell Assay (Example B); format: cell-based; settings: averaged IC50; PDGFR beta phosphorylation in HS27 human fibroblast cell line, PDGF-BB stimulation 10 minutes, normalized to total ERK
T1 construct: endogenous in cells; host or cells: HS27 human fibroblast cell line
T1 sequence (P09619 33-1106): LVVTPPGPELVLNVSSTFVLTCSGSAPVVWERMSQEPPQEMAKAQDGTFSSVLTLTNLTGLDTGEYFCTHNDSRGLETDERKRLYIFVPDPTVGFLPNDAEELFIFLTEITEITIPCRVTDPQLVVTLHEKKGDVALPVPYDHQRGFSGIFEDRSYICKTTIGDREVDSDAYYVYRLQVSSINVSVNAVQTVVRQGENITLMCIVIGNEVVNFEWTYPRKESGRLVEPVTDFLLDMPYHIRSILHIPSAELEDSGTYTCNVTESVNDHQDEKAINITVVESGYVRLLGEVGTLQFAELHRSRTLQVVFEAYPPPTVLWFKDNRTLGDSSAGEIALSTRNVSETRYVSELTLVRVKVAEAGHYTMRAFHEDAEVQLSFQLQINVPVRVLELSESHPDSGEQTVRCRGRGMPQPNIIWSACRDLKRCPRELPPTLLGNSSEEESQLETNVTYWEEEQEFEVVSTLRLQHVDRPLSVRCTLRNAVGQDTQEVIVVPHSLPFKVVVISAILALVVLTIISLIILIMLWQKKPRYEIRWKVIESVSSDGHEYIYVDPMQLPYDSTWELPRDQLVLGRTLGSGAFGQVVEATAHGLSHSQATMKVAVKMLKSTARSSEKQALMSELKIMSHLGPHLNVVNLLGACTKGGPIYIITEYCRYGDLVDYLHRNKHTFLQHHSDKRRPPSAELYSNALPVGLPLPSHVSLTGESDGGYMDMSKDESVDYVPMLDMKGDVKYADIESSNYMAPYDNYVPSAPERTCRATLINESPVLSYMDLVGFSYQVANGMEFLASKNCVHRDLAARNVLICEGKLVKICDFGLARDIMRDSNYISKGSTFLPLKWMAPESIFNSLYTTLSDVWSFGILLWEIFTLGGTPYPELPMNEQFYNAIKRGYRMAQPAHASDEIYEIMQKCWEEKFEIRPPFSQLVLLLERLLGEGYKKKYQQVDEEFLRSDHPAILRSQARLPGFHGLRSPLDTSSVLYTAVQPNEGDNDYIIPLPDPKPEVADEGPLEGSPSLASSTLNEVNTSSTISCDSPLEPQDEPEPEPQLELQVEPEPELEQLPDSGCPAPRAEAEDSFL
Outline: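 HS27 human fibroblasts pretreated 1 h with compound, then stimulated 10 min with PDGF-BB. Fixed, permeabilized cells immunostained for phospho-PDGFRβ and total ERK and read by two-colour infrared fluorescence, with phospho signal normalized to ERK. IC50 = 50% of control from 4-parameter logistic fit.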

[2] = biological target: T2, cFMS (Homo sapiens, UniProt P07333); test: cFMS Cell-Based Assay (Example C); settings: averaged IC50; phospho-cFMS in THP-1 cells stimulated with 250 ng/mL recombinant human MCSF; read-out: cFMS Cell ELISA IC50
T2 construct: THP-1 cells (human acute monocytic leukemia cell line) were serum-starved for 4 hours; endogenous in cells; host or cells: THP-1 cells (human acute monocytic leukemia cell line)
T2 sequence (P07333 20-972): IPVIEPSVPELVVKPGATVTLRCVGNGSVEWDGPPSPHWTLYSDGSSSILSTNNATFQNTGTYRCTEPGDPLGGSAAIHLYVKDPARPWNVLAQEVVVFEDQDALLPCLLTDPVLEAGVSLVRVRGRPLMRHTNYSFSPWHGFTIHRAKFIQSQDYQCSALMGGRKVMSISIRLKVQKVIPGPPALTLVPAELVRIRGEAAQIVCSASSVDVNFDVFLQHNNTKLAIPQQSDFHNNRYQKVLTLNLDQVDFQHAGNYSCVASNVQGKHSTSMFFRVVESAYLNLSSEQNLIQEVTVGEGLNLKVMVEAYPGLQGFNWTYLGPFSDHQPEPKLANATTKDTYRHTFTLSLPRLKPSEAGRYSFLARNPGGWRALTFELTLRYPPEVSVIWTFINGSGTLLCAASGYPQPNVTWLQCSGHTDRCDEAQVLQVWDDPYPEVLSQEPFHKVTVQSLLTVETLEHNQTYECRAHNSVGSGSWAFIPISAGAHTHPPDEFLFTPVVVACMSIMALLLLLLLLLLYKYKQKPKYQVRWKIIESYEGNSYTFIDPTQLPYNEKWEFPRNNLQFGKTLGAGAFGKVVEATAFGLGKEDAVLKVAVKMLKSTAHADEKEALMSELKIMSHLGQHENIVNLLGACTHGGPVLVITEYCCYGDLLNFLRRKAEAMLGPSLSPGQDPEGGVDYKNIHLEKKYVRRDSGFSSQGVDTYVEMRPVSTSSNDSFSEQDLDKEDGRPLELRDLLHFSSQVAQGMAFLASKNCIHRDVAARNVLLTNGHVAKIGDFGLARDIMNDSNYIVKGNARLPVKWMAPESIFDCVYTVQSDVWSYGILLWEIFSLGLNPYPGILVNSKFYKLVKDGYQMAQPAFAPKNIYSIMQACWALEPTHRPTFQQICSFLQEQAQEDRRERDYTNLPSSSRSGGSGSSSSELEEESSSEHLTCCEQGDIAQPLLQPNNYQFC
Outline: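 THP-1 cells serum-starved 4 h, then treated 1 h with compound (9-point, 3-fold series, top dose typically 5,000 nM) at 37 °C, then stimulated 1 min with 250 ng/mL recombinant human MCSF. Phospho-cFMS in lysates quantified by capture ELISA against a purified phospho-protein standard curve. IC50 at 50 percent of control, 4-parameter logistic fit.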

[3] = biological target: T3, c-KIT (Homo sapiens, UniProt P10721); test: c-KIT Cell-Based Assay (Example D); settings: averaged IC50; phospho-c-KIT in M-07e cells stimulated with 150 ng/ml recombinant human SCF; read-out: cKIT Cell ELISA IC50
T3 construct: M-07e cells (human acute megakaryoblastic leukemia cell line) were serum-starved for 4 hours; endogenous in cells; host or cells: M-07e cells (human acute megakaryoblastic leukemia cell line)
T3 sequence (P10721 26-976): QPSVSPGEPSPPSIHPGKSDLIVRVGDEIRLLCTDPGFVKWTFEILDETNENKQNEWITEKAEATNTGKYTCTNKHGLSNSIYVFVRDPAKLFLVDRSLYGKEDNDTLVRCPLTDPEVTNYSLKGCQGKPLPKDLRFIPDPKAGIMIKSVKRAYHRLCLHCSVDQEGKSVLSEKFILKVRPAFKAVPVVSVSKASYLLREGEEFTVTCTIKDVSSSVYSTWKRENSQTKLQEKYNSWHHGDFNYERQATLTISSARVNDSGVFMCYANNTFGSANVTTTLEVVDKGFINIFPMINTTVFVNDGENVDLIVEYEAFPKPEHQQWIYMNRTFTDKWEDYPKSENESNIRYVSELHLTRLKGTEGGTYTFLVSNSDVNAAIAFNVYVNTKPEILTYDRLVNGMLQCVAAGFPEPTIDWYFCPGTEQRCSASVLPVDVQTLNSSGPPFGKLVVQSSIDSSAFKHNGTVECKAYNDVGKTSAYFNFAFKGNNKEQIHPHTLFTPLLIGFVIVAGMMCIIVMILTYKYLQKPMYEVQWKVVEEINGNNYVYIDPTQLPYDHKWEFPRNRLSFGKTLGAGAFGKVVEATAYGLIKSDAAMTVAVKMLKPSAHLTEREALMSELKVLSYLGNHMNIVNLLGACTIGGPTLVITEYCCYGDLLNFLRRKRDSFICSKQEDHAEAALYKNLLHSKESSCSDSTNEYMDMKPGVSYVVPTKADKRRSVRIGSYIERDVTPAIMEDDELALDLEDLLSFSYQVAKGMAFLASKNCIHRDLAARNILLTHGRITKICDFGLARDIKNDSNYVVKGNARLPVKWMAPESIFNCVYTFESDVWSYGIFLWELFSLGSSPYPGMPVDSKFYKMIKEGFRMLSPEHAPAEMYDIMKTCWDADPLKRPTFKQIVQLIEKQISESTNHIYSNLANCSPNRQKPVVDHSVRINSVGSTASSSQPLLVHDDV
Outline: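 M-07e cells serum-starved 4 h, treated 1 h with compound (9-point, 3-fold dilutions, top dose typically 5,000 nM) at 37° C, then stimulated 4 min with 150 ng/ml SCF. Phospho-c-KIT in lysates quantified by ELISA against a standard curve; IC50 from 4-parameter logistic fit as 50% of control.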

[4] = biological target: T1, PDGFR beta; test: Phospho PDGFR Cell Assay, sandwich ELISA (Example A); format: cell-based; settings: averaged IC50, PDGFR beta phosphorylation in HS27 human fibroblast cell line, PDGF-BB stimulation 5 minutes
Experimental: Compounds were screened for inhibition of PDGFR beta phosphorylation in the HS27 human fibroblast cell line. Cells were seeded into a 96 well tissue culture plate, then incubated overnight in a 37° C., 5% CO2 incubator. The following day, cells were treated for one hour with test compound dilutions. After stimulation with PDGF-BB ligand for 5 minutes, cells were lysed and added to a sandwich ELISA plate from R&D Systems to detect levels of phospho PDGFR beta. A standard 4-parameter logistic model was fit to the inhibitor dose response curves, with the IC50 being defined as the concentration of inhibitor giving 50 percent of control (POC).

IC50 [1] | IC50 [2] | IC50 [3] | IC50 [4] | Structure (SMILES)
23.7 nM | 27.7 nM | 41.1 nM | 9.4 nM | CCN1CCN(CCOc2ccn3c(C(=O)Nc4cccc5c4c(C)nn5Cc4cccc(C(C)C)n4)cnc3c2)CC1 [Example 2, 7-(2-(4-Ethylpiperazin-1-yl)ethoxy)-N-(1-((6-isopropylpyridin-2-yl)methyl)-3-methyl-1H-indazol-4-yl)imidazo[1,2-a]pyridine-3-carboxamide]
22 nM | 27.9 nM | 82.8 nM | 20.5 nM | Cc1nn(Cc2cccc(C(C)C)n2)c2cccc(NC(=O)c3cnc4cc(OCCN5CC6(COC6)C5)ccn34)c12 [Example 5, 7-(2-(2-oxa-6-azaspiro[3.3]heptan-6-yl)ethoxy)-N-(1-((6-isopropylpyridin-2-yl)methyl)-3-methyl-1H-indazol-4-yl)imidazo[1,2-a]pyridine-3-carboxamide]
6.3 nM | 40.9 nM | 57 nM | 33.5 nM | Cc1nn(Cc2cccc(C(C)C)n2)c2cccc(NC(=O)c3cnc4cc(OCCN5CCN(C(C)C)CC5)ccn34)c12 [Example 6, 7-(2-(4-Isopropylpiperazin-1-yl)ethoxy)-N-(1-((6-isopropylpyridin-2-yl)methyl)-3-methyl-1H-indazol-4-yl)imidazo[1,2-a]pyridine-3-carboxamide]
1670 nM | – | – | ≥ 1000 nM | Cc1cc(C)nc(Cn2nc(C)c3c(NC(=O)c4cnc5cc(OCCN6CCN(C)[C@@H](C)C6)ccn45)cccc32)c1 [Example 34, (S)-7-(2-(3,4-dimethylpiperazin-1-yl)ethoxy)-N-(1-((4,6-dimethylpyridin-2-yl)methyl)-3-methyl-1H-indazol-4-yl)imidazo[1,2-a]pyridine-3-carboxamide]
– | 56.9 nM | 4320 nM | ≥ 1000 nM | CC(=O)c1ccn2c(C(=O)Nc3cccc4c3c(C)nn4Cc3cccc(C)n3)cnc2c1 [Example 79, 7-acetyl-N-(3-methyl-1-((6-methylpyridin-2-yl)methyl)-1H-indazol-4-yl)imidazo[1,2-a]pyridine-3-carboxamide]
– | 122 nM | 458 nM | 309 nM | COCCOc1ccn2c(C(=O)Nc3cccc4c3c(C)nn4CC3CCCCO3)cnc2c1 (stereo not shown) [Example 82, 7-(2-methoxyethoxy)-N-(3-methyl-1-((tetrahydro-2H-pyran-2-yl)methyl)-1H-indazol-4-yl)imidazo[1,2-a]pyridine-3-carboxamide]
– | 538 nM | 5000 nM | ≥ 1000 nM | COCCOc1ccn2c(C(=O)Nc3cccc4c3c(C)nn4CC3CCOCC3)cnc2c1 [Example 83, 7-(2-methoxyethoxy)-N-(3-methyl-1-((tetrahydro-2H-pyran-4-yl)methyl)-1H-indazol-4-yl)imidazo[1,2-a]pyridine-3-carboxamide]
– | 734 nM | 5000 nM | ≥ 1000 nM | COCCOc1ccn2c(C(=O)Nc3cccc4c3c(C)nn4CC3CC3)cnc2c1 [Example 84, N-(1-(cyclopropylmethyl)-3-methyl-1H-indazol-4-yl)-7-(2-methoxyethoxy)imidazo[1,2-a]pyridine-3-carboxamide]
– | 58.9 nM | 43.1 nM | 236 nM | O=C(Nc1cccc2c1cnn2Cc1ccccc1)c1cnc2cc(Br)ccn12 [Example 161, N-(1-benzyl-1H-indazol-4-yl)-7-bromoimidazo[1,2-a]pyridine-3-carboxamide]

Continued, compound first:

Structure (SMILES) | IC50 [1] | IC50 [2] | IC50 [3] | IC50 [4]
Cc1nn(Cc2cccc(C(C)C)n2)c2cccc(NC(=O)c3cnc4cc(OCCN5CCOCC5)ccn34)c12 [Example 1, N-(1-((6-isopropylpyridin-2-yl)methyl)-3-methyl-1H-indazol-4-yl)-7-(2-morpholinoethoxy)imidazo[1,2-a]pyridine-3-carboxamide] | 12.9 nM | 16.1 nM | 53.3 nM | 29.7 nM
Cc1nn(Cc2cccc(C(C)C)n2)c2cccc(NC(=O)c3cnc4cc(OCCN5CC6(CNC6)C5)ccn34)c12 [Example 3, 7-(2-(2,6-diazaspiro[3.3]heptan-2-yl)ethoxy)-N-(1-((6-isopropylpyridin-2-yl)methyl)-3-methyl-1H-indazol-4-yl)imidazo[1,2-a]pyridine-3-carboxamide trihydrochloride] | 10 nM | 70.4 nM | 176 nM | 138 nM
Cc1nn(Cc2cccc(C(C)C)n2)c2cccc(NC(=O)c3cnc4cc(OCCN5CC6(CN(C)C6)C5)ccn34)c12 [Example 4, N-(1-((6-isopropylpyridin-2-yl)methyl)-3-methyl-1H-indazol-4-yl)-7-(2-(6-methyl-2,6-diazaspiro[3.3]heptan-2-yl)ethoxy)imidazo[1,2-a]pyridine-3-carboxamide] | 10.7 nM | 29.4 nM | 81.6 nM | 27.9 nM
Cc1nn(Cc2csc(C(C)C)n2)c2cccc(NC(=O)c3cnc4cc(OCCN5CC6(COC6)C5)ccn34)c12 [Example 14, 7-(2-(2-oxa-6-azaspiro[3.3]heptan-6-yl)ethoxy)-N-(1-((2-isopropylthiazol-4-yl)methyl)-3-methyl-1H-indazol-4-yl)imidazo[1,2-a]pyridine-3-carboxamide] | 36.6 nM | 20.6 nM | 96.4 nM | 37.7 nM
Cc1nn(Cc2cccc(C3CC3)n2)c2cccc(NC(=O)c3cnc4cc(OCCN5CCN(C(C)C)CC5)ccn34)c12 [Example 16, N-(1-((6-cyclopropylpyridin-2-yl)methyl)-3-methyl-1H-indazol-4-yl)-7-(2-(4-isopropylpiperazin-1-yl)ethoxy)imidazo[1,2-a]pyridine-3-carboxamide] | 103 nM | 13.9 nM | 34.8 nM | 28.1 nM
CCN1CCN(CCOc2ccn3c(C(=O)Nc4cccc5c4c(C)nn5Cc4cccc(C5CC5)n4)cnc3c2)CC1 [Example 17, N-(1-((6-cyclopropylpyridin-2-yl)methyl)-3-methyl-1H-indazol-4-yl)-7-(2-(4-ethylpiperazin-1-yl)ethoxy)imidazo[1,2-a]pyridine-3-carboxamide] | 313 nM | 11 nM | 54.2 nM | 85 nM
Cc1cccc(CCn2nc(C)c3c(NC(=O)c4cnc5cc(OCCN6CCN(C)[C@@H](C)C6)ccn45)cccc32)n1 [Example 42, (S)-7-(2-(3,4-dimethylpiperazin-1-yl)ethoxy)-N-(3-methyl-1-(2-(6-methylpyridin-2-yl)ethyl)-1H-indazol-4-yl)imidazo[1,2-a]pyridine-3-carboxamide] | 4800 nM | – | – | ≥ 1000 nM
O=C(Nc1cccc2c1cnn2Cc1ccccc1)c1cnc2cc(O)ccn12 [Example 92, N-(1-benzyl-1H-indazol-4-yl)-7-hydroxyimidazo[1,2-a]pyridine-3-carboxamide] | – | 26 nM | 205 nM | 137 nM
COCCOc1ccn2c(C(=O)Nc3cccc4c3cnn4C[C@@H]3CCCN(C(=O)OC(C)(C)C)C3)cnc2c1 [Example 117, (R)-tert-butyl 3-((4-(7-(2-methoxyethoxy)imidazo[1,2-a]pyridine-3-carboxamido)-1H-indazol-1-yl)methyl)piperidine-1-carboxylate] | – | 168 nM | 125 nM | 54.8 nM
COCCOc1ccn2c(C(=O)Nc3cccc4c3cnn4CC3CN(C(=O)OC(C)(C)C)CCO3)cnc2c1 (stereo not shown) [Example 123, tert-butyl 2-((4-(7-(2-methoxyethoxy)imidazo[1,2-a]pyridine-3-carboxamido)-1H-indazol-1-yl)methyl)morpholine-4-carboxylate] | – | 378 nM | 255 nM | 162 nM
O=C(Nc1cccc2c1cnn2Cc1ccccc1)c1cnc2ccc(Br)cn12 [Example 155, N-(1-benzyl-1H-indazol-4-yl)-6-bromoimidazo[1,2-a]pyridine-3-carboxamide] | – | 114 nM | 76.2 nM | 282 nM
O=C(Nc1cccc2c1cnn2Cc1ccccc1)c1cnc2cc(C(O)CO)ccn12 (stereo not shown) [Example 157, N-(1-benzyl-1H-indazol-4-yl)-7-(1,2-dihydroxyethyl)imidazo[1,2-a]pyridine-3-carboxamide] | – | 105 nM | 232 nM | 275 nM
